Test results reported in patent US6162832A, “2-Phenoxyaniline derivatives” (Taisho Pharmaceutical Co., Inc., priority 1997, dated 2000).
Counter-ions that a name gives are not always drawn.

target: T1, Na^+ /Ca^2+ Exchange System (Canis lupus familiaris, UniProt P23685); assay: Inhibitory Action on a Na^+ /Ca^2+ Exchange System using Cardiac Sarcolemmal Vesicles; format: biochemical; conditions: 10 s; 1 μM test drug; dog ventricular sarcolemmal vesicles; 45Ca uptake, 10 seconds; remaining activity vs vehicle-treated group; read-out: Na^+ /Ca^2+ exchange activity (% of control)
T1 construct: Sarcolemmal vesicles prepared from the removed dog ventricular muscles; from tissue; host or cells: dog ventricular muscle, sarcolemmal vesicles
Procedure: Inhibitory Action on a Na^+ /Ca^2+ Exchange System using Cardiac Sarcolemmal Vesicles Sarcolemmal vesicles prepared from the removed dog ventricular muscles according to the method described in the literature (L. R. Jones, Methods, Enzymol., 1988, 157, pp. 85) were used. A Na^+ /Ca^2+ exchange activity using the sarcolemmal vesicles was measured according to the method described in the literature (K. D. Philipson, et al., J. Biol. Chem., 1980, 255, pp. 6880). First, the sarcolemmal vesicles were suspended in a sodium-containing solution [160 mM sodium chloride, 20 mM Tris-hydrochloric acid (pH 7.4)] to make up to a protein concentration of 1.5 mg/ml, and allowed to stand for an hour to load Na^+ in the sarcolemmal vesicles. To 2.5 μl of the sarcolemmal vesicles was added 125 μl of a [^45 Ca]-calcium chloride solution [20 μM [^45 Ca]-calcium chloride, 160 mM potassium chloride and 20 mM Mops-Tris (pH 7.4)], and after 10 seconds, 900 μl of an ice-cooled lanthanum chloride solution [10 mM lanthanum chloride, 160 mM potassium chloride and 20 mM Mops-Tris (pH 7.4)] was added. The sarcolemmal vesicles were recovered on a nitrocellulose filter by suction filtration and washed three times with 900 μl of a lanthanum chloride solution. The […] of Ca^2+ uptake in the sarcolemmal vesicles was determined by measuring a ^45 Ca radioactivity by a scintillator. In addition, a Na^+ /Ca^2+ exchange activity-independent Ca^2+ uptake in the sarcolemmal vesicles was determined by carrying out the same procedure using a potassium-containing solution [160 mM potassium chloride, 20 mM Tris-hydrochloric acid (pH 7.4)] instead of the sodium-containing solution. The test compound was used as a dimethyl sulfoxide solution thereof, and its inhibitory effect was evaluated in comparison with the vehicle-treatedgroup.

Question: Which remaining activity at 1 µM does the source give for CCOc1ccc(Oc2ccc(OCc3c(F)cccc3F)cc2)c(N)c1 [Compound 7, 2-[4-(2.6-Difluorobenzyloxy)phenoxy]-5-ethoxyaniline hydrochloride] here?
Answer: The remaining activity at 1 µM was 33%.

Question: How did the remaining activity at 1 µM turn out when CCOc1ccc(Oc2ccc(OCc3cccc(F)c3F)cc2)c(N)c1 [Compound 10, 2-[4-(2,3-Difluorobenzyloxy)phenoxy]-5-ethoxyaniline hydrochloride] was run?
Answer: The remaining activity at 1 µM was 45%.

Question: Which remaining activity at 1 µM does the source give for Nc1ccccc1Oc1ccc(OCc2cc(F)ccc2F)cc1 [Compound 4, 2-[4-(2,5-Difluorobenzyloxy)phenoxy]aniline hydrochloride] here?
Answer: The remaining activity at 1 µM was 27%.

Question: With Nc1ccccc1Oc1ccc(OCc2cccc(F)c2F)cc1 [Compound 3, 2-[4-(2,3-Difluorobenzyloxy)phenoxy]aniline hydrochloride] as the molecule, how does the remaining activity at 1 µM read?
Answer: The remaining activity at 1 µM was 38%.

Question: With Nc1ccccc1Oc1ccc(OCc2ccc(F)cc2F)cc1 [Compound 8, 2-[4-(2,4-Difluorobenzyloxy)phenoxy]aniline hydrochloride] as the molecule, how does the remaining activity at 1 µM read?
Answer: The remaining activity at 1 µM was 47%.

Question: How did the remaining activity at 1 µM turn out when CCOc1ccc(Oc2ccc(OCc3cc(F)ccc3F)cc2)c(N)c1 [Compound 6, 2-[4-(2.5-Difluorobenzyloxy)phenoxy]-5-ethoxyaniline hydrochloride] was run?
Answer: Its remaining activity at 1 µM is 39%.

Question: With Nc1ccccc1Oc1ccc(OCc2c(F)cccc2F)cc1 [Compound 5, 2-[4-(2,6-Difluorobenzyloxy)phenoxy]aniline hydrochloride] as the molecule, how does the remaining activity at 1 µM read?
Answer: Its remaining activity at 1 µM is 43%.
